Measured values reported in patent US11781984B2, “Fluorescent method to quantify copper or platinum based on catalysis” (University of Pittsburgh—Of the Commonwealth System of …, priority 2018, dated 2023).

Assays:
[1] = Kinetic study to determine turnover frequency of copper-mediated depropargylation of PPE; conditions: 200 nM Cu^2+, 20 μM PPE, 160 μM DMAPPP
Description: To determine whether this method was a catalytic method, we monitored the reaction over time (FIG. 11). A standard curve was prepared for dichlorofluorescein (DCF) by dissolving the solid in EtOH to a concentration of 20 mM. The DCF was then diluted to 500 μM in EtOH. A stock solution was prepared by adding 500 mM pH 8.5 borate buffer (600 μL), EtOH (81.6 μL), 500 μM DCF in EtOH (32 μL), 20 mM DMAPPP in DMSO (6.4 μL). This stock solution (200 μL) was then transferred to a black 96-well plate.
The diluent was prepared by mixing 500 mM borate pH 8.5 buffer (9.00 mL), EtOH (1.70 mL), and 20 mM DMAPPP in DMSO (96 μL). The diluent (100 μL) was transferred to the black 96-well plate. 2× serial dilutions were performed by removing 100 μL of the stock solution from the wells and adding it to the wells containing the diluent. […] The fluorescence of these solutions was measured and a standard curve was generated.
The working solution was prepared by mixing 500 mM borate pH 8.5 buffer (1.20 mL), EtOH (187 μL), 800 μM PPE in EtOH (40 μL), 20 mM DMAPPP in DMSO (12.8 μL) in a conical tube. […] 0 or 2.0 μM Cu^2+ (20 μL) was then added to the wells and the fluorescence was measured every 5 min for 2 h.
The fluorescence value was converted to a concentration of Pittsburgh Green using the linear regression generated from the standard curve of DCF. The fluorescence vs. time was then plotted.

[2] = system: HeLa cells; assay: Fluorescence imaging of copper ions in live HeLa cells; type: cell-based; conditions: HeLa cells loaded with 1 mM CuSO4, 20 μM PPE, 160 μM DMAPPP, 15 min
Description: Finally, we applied our method to imaging cellular pools of copper. HeLa cells were loaded with 1 mM CuSO4 in DMEM for 30 min at 37° C. The cells were washed. PPE and DMAPPP were added during imaging to a final concentration of 20 μM and 160 μM, respectively. Images were obtained on a Nikon Ti microscope equipped with a 60× (1.4 NA) objective.

[3] = Fluorescence intensity of Pittsburgh Green versus PPE; type: physicochemical
Description: All fluorescence measurements were obtained using a Modulus II Microplate Multimode Reader. Fluorescence was measured after exciting samples with 490 nm light and emission was measured between 510-570 nm. All fluorescence measurements were obtained at room temperature.

Question: Which results are given for Propargyl Pittsburgh Green ether [PPE]?
Answer: concentration of reaction product (Pittsburgh Green) produced ([1]; after one hour): approximately 480 nM; turnover frequency ([1]; borate pH 8.5): ~2.4 per hour; fluorescence within cells [2]: time-dependent increase in fluorescence; ratio of fluorescence intensities Pittsburgh Green fluorophore : PPE [3]: 200-400 :1
